# In patent US10933093B2, “Compositions and methods of treating a T cell mediated disorder” (CASE WESTERN RESERVE UNIVERSITY, priority 2009, dated 2021):
# B1: C5a: Murine C5a from Cell Sciences, Inc (protein, UniProt P06684 679-755, looked up)
# C5a anaphylatoxin: NLHLLRQKIEEQAAKYKHSVPKKCCYDGARVNFYETCEERVARVTIGPLCIRAFNECCTIANKIRKESPHKPVQLGR
# modifications: C5a anaphylatoxin
# notes: Murine C5a from Cell Sciences, Inc
# Legend:
# naive CD4^+ cells = experiment: FoxP3+ iTreg induction from naive CD4+ cells stimulated with anti-CD3, IL-2 and DCs (flow cytometry); type: cell-based, mice
# iTregs = experiment: Costimulatory molecule expression of iTregs by flow cytometry; type: cell-based, mice; settings: higher
# Procedure: (§1) FIGS. 3(A-I) illustrate graphs showing: A) 1×10^6 CD62L^hiCD25^−CD4^+ cells from WT or C3aR^−/−C5aR^−/− mice were incubated with anti-CD3/CD28 Dynabead activation beads, 5 ng/ml rhIL-2, and 1×10^5 CD11c^+ WT DCs for 3 days. The CD4^+ cell and DC partners were sorted, after which the DCs were assayed for B7 family members (*P<0.01; **P<0.03; ***P=0.07) and the CD4^+ cells were assayed for B7 coinhibitory counter-receptors by flow. B) 1×10^6 CD62L^hiCD25^−CD4^+ cells from WT mice were incubated with anti-CD3/CD28 Dynabead activation beads, 5 ng/ml rhIL-2, and 1×10^5 CD11c^+ WT DCs for 3 days±10 nM C3aR-A/C5aR-A or ±5 ng/ml rhTGF-fβ1. The CD4^+ cell and DC partners were sorted, after which the cells were assayed as in (A; *P<0.01 C3aR-A/C5aR-A vs. TGF-β1). C) 1×10^6 CD62L^hiCD25^− CD4^+ cells from WT or C3aR^−/−C5aR^−/− were incubated with anti-CD3/CD28 Dynabead activation beads, 5 ng/ml rhIL-2, and 1×10^5 CD11c^+ WT DCs for 3 days in the presence of blocking anti-CTLA-4, anti-PD-1, or anti-ICOS-L Abs and percent FoxP3^+ cells assayed by flow cytometry. […] I) C57BL/6 CD4^+ T cells were incubated for 1 hr with anti-CD3/CD28±100 ng/ml C5a and FoxP3 mRNA was quantitated by qPCR. […]
# [1] = test system: anti-CD3/CD28 stimulated CD4^+ cells; experiment: qPCR of complement and FoxP3 mRNA in anti-CD3/CD28 stimulated CD4+ cells; type: cell-based, C57BL/6 mice; settings: for transcription of complement genes (complement mRNA): qPCR; for FoxP3 mRNA transcription: anti-CD3/28 stimulated naive CD4+ cells, C5a 100 ng/ml, 1 hr
# Procedure: FIGS. 3(A-I) illustrate graphs showing: A) 1×10^6 CD62L^hiCD25^−CD4^+ cells from WT or C3aR^−/−C5aR^−/− mice were incubated with anti-CD3/CD28 Dynabead activation beads, 5 ng/ml rhIL-2, and 1×10^5 CD11c^+ WT DCs for 3 days. The CD4^+ cell and DC partners were sorted, after which the DCs were assayed for B7 family members (*P<0.01; **P<0.03; ***P=0.07) and the CD4^+ cells were assayed for B7 coinhibitory counter-receptors by flow. B) 1×10^6 CD62L^hiCD25^−CD4^+ cells from WT mice were incubated with anti-CD3/CD28 Dynabead activation beads, 5 ng/ml rhIL-2, and 1×10^5 CD11c^+ WT DCs for 3 days±10 nM C3aR-A/C5aR-A or ±5 ng/ml rhTGF-fβ1. The CD4^+ cell and DC partners were sorted, after which the cells were assayed as in (A; *P<0.01 C3aR-A/C5aR-A vs. TGF-β1). C) 1×10^6 CD62L^hiCD25^− CD4^+ cells from WT or C3aR^−/−C5aR^−/− were incubated with anti-CD3/CD28 Dynabead activation beads, 5 ng/ml rhIL-2, and 1×10^5 CD11c^+ WT DCs for 3 days in the presence of blocking anti-CTLA-4, anti-PD-1, or anti-ICOS-L Abs and percent FoxP3^+ cells assayed by flow cytometry. D) 1×10^6 CD62L^hiCD25^− CD4^+ cells from WT, ICOS^−/−, or PD-1^−/− were incubated with anti-CD3/CD28 Dynabead activation beads, 5 ng/ml rhIL-2, and […] CD11c^+ WT or PD-L1^−/− DCs for 3 days in the presence of blocking anti-CTLA-4, anti-PD-1, or anti-ICOS-L Abs and percent FoxP3^+ cells assayed by flow cytometry. E) Anti-CD3/CD28 stimulated CD4^+ cells were treated with TGF-β1 or buffer and complement mRNA transcripts were assayed by qPCR. F-H) 1×10^4 CD62L^hiCD25^− CD4^+ cells from C57BL/6 mice were incubated with anti-CD3/CD28 Dynabeads and 5 ng/ml rhIL-2 for 3 days in the presence of TGF-β, TGF-β+IL-6, or IL-6 after which cells were assayed for (F) C3 mRNA expression by qPCR, (G) C3 and C5a generation by ELSIA, and (H) C3aR and C5aR surface expression by flow cytometry. I) C57BL/6 CD4^+ T cells were incubated for 1 hr with anti-CD3/CD28±100 ng/ml C5a and FoxP3 mRNA was quantitated by qPCR.
# For C3aR/C5aR signaling to be absent, local complement production by interacting DCs and CD4^+ cells must not occur or be suppressed. […] As a first test of this, we incubated anti-CD3/CD28 stimulated CD4^+ cells in the presence and absence of TGF-β1. […] To test how IL-6 affects CD4^+ cell complement production, we added IL-6 to naive CD4^+ cells. […]
# […] for 5 min at 20° C. using Trizol (Invitrogen, Carlsbad, Calif.) according to the manufacturer. When C3aR and C5aR mRNAs were analyzed, preparations were treated with DNase I (standard protocol) to remove genomic DNA. cDNAs were synthesized by incubating 20 μl of mRNAs in Sprint PowerScript Single Shots (Clontech, Mountain View, Calif.). […]
# [2] = test system: DC-CD4^+ cell C3a/C5a production; experiment: C3a/C5a generation by ELISA; type: cell-based, C57BL/6 mice; settings: 3 days
# Procedure: as §1, with “TGF-β1).” for “TGF-β1). C) 1×10^6 CD62L^hiCD25^− CD4^+ cells from WT or C3aR^−/−C5aR^−/− were incubated with anti-CD3/CD28 Dynabead activation beads, 5 ng/ml rhIL-2, and 1×10^5 CD11c^+ WT DCs for 3 days in the presence of blocking anti-CTLA-4, anti-PD-1, or anti-ICOS-L Abs and percent FoxP3^+ cells assayed by flow cytometry.”
# For C5a, C3a, IL-2, IL-10, and IL-6, capture and biotinylated detection Ab pairs were purchased from BD Biosciences. […] Reactions were terminated using 1N H2SO4 and plates were read using a SpectraMax M2 fluorimeter. • Induction and Evaluation of EAE
# C3aR/C5aR expression = experiment: C3aR and C5aR surface expression by flow cytometry; type: cell-based, C57BL/6 mice; settings: 3 days
# Procedure: as §1
# [3] = test system: human CD45RA^+CD25^−CD4^+ cells; experiment: Human iTreg preparation and human Treg suppression assay; type: cell-based
# Procedure: FIGS. 5(A-G) illustrate graphs showing, A-C) EAE was induced in FoxP3-GFP knockin mice and 10 days after disease onset, CD4 cells were isolated from spleens and lymph nodes and sorted on GFP. 4×10^6 GFP negative cells were adoptively transferred into Rag2^−/− mice. The mice were subsequently injected with 1×10^6 FoxP3-GFP positive cells or PBS after which A) weight change, B) clinical scores, and C) percent FoxP3^+ cells were assayed. D-E) EAE was induced in WT and C3aR^−/−C5aR^−/− mice and at day 12 post disease induction draining LN cells were harvested and assayed for D) % FoxP3^+ cells, and E) suppressive capacity as above. F) EAE was induced in FoxP3-GFP knockin mice and 10 days after induction mice were treated with buffer control, C3aR-A/C5aR-A, or ex vivo generated FoxP3^+ Tregs (from FoxP3-GFP mice with C3aR-A/C5aR-A), after which […]) clinical scores were assessed. G) CD25^+ cells from 1×10^6 CD25^−CD4^+ Human T cells isolated by flow cytometry and incubated with soluble anti-CD3, IL-2, and autologous DCs in the presence and absence of TGF-β, C3aR-A/C5aR-A, or anti-C3a/C5a mAbs for 3 days were incubated with CFSE labeled autologous naive T cells, anti-CD3, and autologous DCs and percent dividers determined 3 days thereafter by CFSE dilution. […]
# [4] = test system: CellTracker Red-labeled OT-II cells; experiment: Murine Treg suppression assay; type: cell-based, mice; settings: cells from stimulated naive C3−/−C5−/− CD4+ cells, C5a added
molecule,measurement,setting,value
TGF-β1: human TGF-β1 from Prospec Bio,FoxP3+ cell induction,"naive CD4^+ cells; anti-CD3/CD28 stimulated CD4+ cells, added TGF-β1",induced FoxP3^+ cells
same,costimulatory molecule expression of iTregs generated with exogenous TGF-β1 relative to those generated by C3aR/C5aR antagonism,iTregs,3-6 fold
same,transcription of complement genes (complement mRNA),[1],abolished
same,DC-CD4+ cell C3a/C5a production,[2],did neither
same,C3aR/C5aR expression,C3aR/C5aR expression,did neither
same,costimulatory molecules on human iTregs (phenotyping),[3]; human iTregs,showed costimulatory molecules
same,suppression by CD25+ (FoxP3+) cells of CFSE-labeled CD25−CD4+ cells,"[3]; human, equal number of sorted CD25+ cells, DCs, anti-CD3, same individual",little effect
IL-6: cytokine IL-6 added to naive CD4+ cells,FoxP3 mRNA transcription,[1],inhibited
same,transcription of complement genes (complement mRNA),[1],upregulated
same,DC-CD4+ cell C3a/C5a production,[2],evoked
same,C3aR/C5aR expression,C3aR/C5aR expression,upregulated
B1,iTreg induction,"naive CD4^+ cells; naive C3−/−C5−/− CD4+ cells stimulated with anti-CD3, DCs and IL-2, C5a added",blocked
same,suppressor function,[4],blocked
same,FoxP3 mRNA transcription,[1],inhibited
